# Measurements: ChEMBL document CHEMBL4261591, “Antimicrobial 1,3,4-trisubstituted-1,2,3-triazolium salts” (2018)
# System: not listed separately
# Assay: Selectivity index, ratio of MIC for Escherichia coli ATCC 25922 to MIC for Bacillus subtilis ATCC 6051
# Type: functional
# Details: not given
row,SMILES,Selectivity Index
1,CCCCc1cn(-c2ccc(C)cc2)n[n+]1Cc1ccc(C(C)(C)C)cc1,> 50
2,CCCCCCCCc1cn(-c2ccc(C)cc2)n[n+]1Cc1ccccc1,> 50

# System: Bacillus subtilis
# Assay: microbe, parasite or virus in culture
# Type: functional
# Details: ATCC 6051, 24 h
# Description: Antibacterial activity against Bacillus subtilis ATCC 6051 after 24 hrs by CLSI broth microdilution assay
row,SMILES,MIC
1,CCCCc1cn(-c2ccc(C)cc2)n[n+]1Cc1ccc(C(C)(C)C)cc1,4 µM
2,CCCCc1cn(Cc2ccccc2)n[n+]1Cc1ccccc1,> 250 µM
3,Cc1ccc(-n2cc(-c3ccccc3)[n+](Cc3ccccc3)n2)cc1,> 250 µM
4,CCCCc1cn(-c2ccc(C)cc2)n[n+]1Cc1ccccc1,> 250 µM
5,Cc1ccc(-[n+]2nn(Cc3ccc(C(C)(C)C)cc3)cc2-c2ccccc2)cc1,16 µM
6,Cc1ccc(-n2cc(-c3ccccc3)[n+](Cc3ccc(C(C)(C)C)cc3)n2)cc1,8 µM
7,Cc1ccc(-[n+]2nn(Cc3ccccc3)cc2-c2ccccc2)cc1,> 250 µM

# The remaining lines, values ahead:
row,MIC,SMILES
1,2 µM,CCCCCCCCCCCCc1cn(Cc2ccccc2)n[n+]1Cc1ccccc1
2,2 µM,CCCCCCCCCCCCc1cn(-c2ccc(C)cc2)n[n+]1Cc1ccc(C(C)(C)C)cc1
3,4 µM,CCCCCCCCc1cn(-c2ccc(C)cc2)n[n+]1Cc1ccccc1
4,8 µM,CCCCCCCCc1cn(Cc2ccccc2)n[n+]1Cc1ccccc1
5,8 µM,CCCCc1cn(Cc2ccccc2)n[n+]1Cc1ccc(C(C)(C)C)cc1
6,1 µM,CCCCCCCCc1cn(Cc2ccccc2)n[n+]1Cc1ccc(C(C)(C)C)cc1
7,2 µM,CCCCCCCCCCCCc1cn(Cc2ccccc2)n[n+]1Cc1ccc(C(C)(C)C)cc1
8,1 µM,CCCCCCCCCCCCc1cn(-c2ccc(C)cc2)n[n+]1Cc1ccccc1
9,2 µM,CCCCCCCCc1cn(-c2ccc(C)cc2)n[n+]1Cc1ccc(C(C)(C)C)cc1

# System: Staphylococcus epidermidis
# Assay: microbe, parasite or virus in culture
# Type: functional
# Details: ATCC 14990, 24 h
# Description: Antibacterial activity against Staphylococcus epidermidis ATCC 14990 after 24 hrs by CLSI broth microdilution assay
row,SMILES,MIC
1,CCCCc1cn(-c2ccc(C)cc2)n[n+]1Cc1ccc(C(C)(C)C)cc1,4 µM
2,CCCCc1cn(Cc2ccccc2)n[n+]1Cc1ccccc1,> 250 µM
3,Cc1ccc(-n2cc(-c3ccccc3)[n+](Cc3ccccc3)n2)cc1,> 250 µM
4,CCCCc1cn(-c2ccc(C)cc2)n[n+]1Cc1ccccc1,> 250 µM
5,Cc1ccc(-[n+]2nn(Cc3ccc(C(C)(C)C)cc3)cc2-c2ccccc2)cc1,16 µM
6,Cc1ccc(-n2cc(-c3ccccc3)[n+](Cc3ccc(C(C)(C)C)cc3)n2)cc1,8 µM
7,Cc1ccc(-[n+]2nn(Cc3ccccc3)cc2-c2ccccc2)cc1,> 250 µM

# Next, values leading:
row,MIC,SMILES
1,4 µM,CCCCCCCCCCCCc1cn(Cc2ccccc2)n[n+]1Cc1ccccc1
2,2 µM,CCCCCCCCCCCCc1cn(-c2ccc(C)cc2)n[n+]1Cc1ccc(C(C)(C)C)cc1
3,8 µM,CCCCCCCCc1cn(-c2ccc(C)cc2)n[n+]1Cc1ccccc1
4,8 µM,CCCCCCCCc1cn(Cc2ccccc2)n[n+]1Cc1ccccc1
5,8 µM,CCCCc1cn(Cc2ccccc2)n[n+]1Cc1ccc(C(C)(C)C)cc1
6,2 µM,CCCCCCCCc1cn(Cc2ccccc2)n[n+]1Cc1ccc(C(C)(C)C)cc1
7,2 µM,CCCCCCCCCCCCc1cn(Cc2ccccc2)n[n+]1Cc1ccc(C(C)(C)C)cc1
8,2 µM,CCCCCCCCCCCCc1cn(-c2ccc(C)cc2)n[n+]1Cc1ccccc1
9,2 µM,CCCCCCCCc1cn(-c2ccc(C)cc2)n[n+]1Cc1ccc(C(C)(C)C)cc1

# System: Escherichia coli
# Assay: microbe, parasite or virus in culture
# Type: functional
# Details: ATCC 25922, 24 h
# Description: Antibacterial activity against Escherichia coli ATCC 25922 after 24 hrs by CLSI broth microdilution assay
row,SMILES,MIC
1,CCCCc1cn(-c2ccc(C)cc2)n[n+]1Cc1ccc(C(C)(C)C)cc1,250 µM
2,CCCCc1cn(Cc2ccccc2)n[n+]1Cc1ccccc1,> 250 µM
3,Cc1ccc(-n2cc(-c3ccccc3)[n+](Cc3ccccc3)n2)cc1,> 250 µM
4,CCCCc1cn(-c2ccc(C)cc2)n[n+]1Cc1ccccc1,> 250 µM
5,Cc1ccc(-[n+]2nn(Cc3ccc(C(C)(C)C)cc3)cc2-c2ccccc2)cc1,> 250 µM
6,Cc1ccc(-n2cc(-c3ccccc3)[n+](Cc3ccc(C(C)(C)C)cc3)n2)cc1,> 250 µM
7,Cc1ccc(-[n+]2nn(Cc3ccccc3)cc2-c2ccccc2)cc1,> 250 µM

# More lines, now with the values ahead:
row,MIC,SMILES
1,16 µM,CCCCCCCCCCCCc1cn(Cc2ccccc2)n[n+]1Cc1ccccc1
2,250 µM,CCCCCCCCCCCCc1cn(-c2ccc(C)cc2)n[n+]1Cc1ccc(C(C)(C)C)cc1
3,> 250 µM,CCCCCCCCc1cn(-c2ccc(C)cc2)n[n+]1Cc1ccccc1
4,> 250 µM,CCCCCCCCc1cn(Cc2ccccc2)n[n+]1Cc1ccccc1
5,> 250 µM,CCCCc1cn(Cc2ccccc2)n[n+]1Cc1ccc(C(C)(C)C)cc1
6,31 µM,CCCCCCCCc1cn(Cc2ccccc2)n[n+]1Cc1ccc(C(C)(C)C)cc1
7,250 µM,CCCCCCCCCCCCc1cn(Cc2ccccc2)n[n+]1Cc1ccc(C(C)(C)C)cc1
8,8 µM,CCCCCCCCCCCCc1cn(-c2ccc(C)cc2)n[n+]1Cc1ccccc1
9,16 µM,CCCCCCCCc1cn(-c2ccc(C)cc2)n[n+]1Cc1ccc(C(C)(C)C)cc1

# System: Klebsiella aerogenes
# Assay: microbe, parasite or virus in culture
# Type: functional
# Details: ATCC 13048, 24 h
# Description: Antibacterial activity against Enterobacter aerogenes ATCC 13048 after 24 hrs by CLSI broth microdilution assay
row,SMILES,MIC
1,CCCCc1cn(-c2ccc(C)cc2)n[n+]1Cc1ccc(C(C)(C)C)cc1,> 250 µM
2,CCCCc1cn(Cc2ccccc2)n[n+]1Cc1ccccc1,> 250 µM
3,Cc1ccc(-n2cc(-c3ccccc3)[n+](Cc3ccccc3)n2)cc1,> 250 µM
4,CCCCc1cn(-c2ccc(C)cc2)n[n+]1Cc1ccccc1,> 250 µM
5,Cc1ccc(-[n+]2nn(Cc3ccc(C(C)(C)C)cc3)cc2-c2ccccc2)cc1,> 250 µM
6,Cc1ccc(-n2cc(-c3ccccc3)[n+](Cc3ccc(C(C)(C)C)cc3)n2)cc1,> 250 µM
7,Cc1ccc(-[n+]2nn(Cc3ccccc3)cc2-c2ccccc2)cc1,> 250 µM

# Continued, values first:
row,MIC,SMILES
1,16 µM,CCCCCCCCCCCCc1cn(Cc2ccccc2)n[n+]1Cc1ccccc1
2,250 µM,CCCCCCCCCCCCc1cn(-c2ccc(C)cc2)n[n+]1Cc1ccc(C(C)(C)C)cc1
3,> 250 µM,CCCCCCCCc1cn(-c2ccc(C)cc2)n[n+]1Cc1ccccc1
4,> 250 µM,CCCCCCCCc1cn(Cc2ccccc2)n[n+]1Cc1ccccc1
5,> 250 µM,CCCCc1cn(Cc2ccccc2)n[n+]1Cc1ccc(C(C)(C)C)cc1
6,31 µM,CCCCCCCCc1cn(Cc2ccccc2)n[n+]1Cc1ccc(C(C)(C)C)cc1
7,250 µM,CCCCCCCCCCCCc1cn(Cc2ccccc2)n[n+]1Cc1ccc(C(C)(C)C)cc1
8,8 µM,CCCCCCCCCCCCc1cn(-c2ccc(C)cc2)n[n+]1Cc1ccccc1
9,16 µM,CCCCCCCCc1cn(-c2ccc(C)cc2)n[n+]1Cc1ccc(C(C)(C)C)cc1

# System: Candida albicans
# Assay: microbe, parasite or virus in culture
# Type: functional
# Details: ATCC 90028, 24 h
# Description: Antifungal activity against Candida albicans ATCC 90028 after 24 hrs by CLSI broth microdilution assay
row,SMILES,MIC
1,CCCCc1cn(-c2ccc(C)cc2)n[n+]1Cc1ccc(C(C)(C)C)cc1,250 µM
2,CCCCc1cn(Cc2ccccc2)n[n+]1Cc1ccccc1,> 250 µM
3,Cc1ccc(-n2cc(-c3ccccc3)[n+](Cc3ccccc3)n2)cc1,> 250 µM
4,CCCCc1cn(-c2ccc(C)cc2)n[n+]1Cc1ccccc1,> 250 µM
5,Cc1ccc(-[n+]2nn(Cc3ccc(C(C)(C)C)cc3)cc2-c2ccccc2)cc1,> 250 µM
6,Cc1ccc(-n2cc(-c3ccccc3)[n+](Cc3ccc(C(C)(C)C)cc3)n2)cc1,> 250 µM
7,Cc1ccc(-[n+]2nn(Cc3ccccc3)cc2-c2ccccc2)cc1,> 250 µM

# Second part, the molecule after the results:
row,MIC,SMILES
1,16 µM,CCCCCCCCCCCCc1cn(Cc2ccccc2)n[n+]1Cc1ccccc1
2,4 µM,CCCCCCCCCCCCc1cn(-c2ccc(C)cc2)n[n+]1Cc1ccc(C(C)(C)C)cc1
3,250 µM,CCCCCCCCc1cn(-c2ccc(C)cc2)n[n+]1Cc1ccccc1
4,250 µM,CCCCCCCCc1cn(Cc2ccccc2)n[n+]1Cc1ccccc1
5,250 µM,CCCCc1cn(Cc2ccccc2)n[n+]1Cc1ccc(C(C)(C)C)cc1
6,8 µM,CCCCCCCCc1cn(Cc2ccccc2)n[n+]1Cc1ccc(C(C)(C)C)cc1
7,8 µM,CCCCCCCCCCCCc1cn(Cc2ccccc2)n[n+]1Cc1ccc(C(C)(C)C)cc1
8,8 µM,CCCCCCCCCCCCc1cn(-c2ccc(C)cc2)n[n+]1Cc1ccccc1
9,4 µM,CCCCCCCCc1cn(-c2ccc(C)cc2)n[n+]1Cc1ccc(C(C)(C)C)cc1

# System: Saccharomyces cerevisiae
# Assay: microbe, parasite or virus in culture
# Type: functional
# Details: ATCC 9763, 24 h
# Description: Antifungal activity against Saccharomyces cerevisiae ATCC 9763 after 24 hrs by CLSI broth microdilution assay
row,SMILES,MIC
1,CCCCc1cn(-c2ccc(C)cc2)n[n+]1Cc1ccc(C(C)(C)C)cc1,250 µM
2,CCCCc1cn(Cc2ccccc2)n[n+]1Cc1ccccc1,> 250 µM
3,Cc1ccc(-n2cc(-c3ccccc3)[n+](Cc3ccccc3)n2)cc1,> 250 µM
4,CCCCc1cn(-c2ccc(C)cc2)n[n+]1Cc1ccccc1,> 250 µM
5,Cc1ccc(-[n+]2nn(Cc3ccc(C(C)(C)C)cc3)cc2-c2ccccc2)cc1,> 250 µM
6,Cc1ccc(-n2cc(-c3ccccc3)[n+](Cc3ccc(C(C)(C)C)cc3)n2)cc1,> 250 µM
7,Cc1ccc(-[n+]2nn(Cc3ccccc3)cc2-c2ccccc2)cc1,> 250 µM

# Now from value to molecule:
row,MIC,SMILES
1,16 µM,CCCCCCCCCCCCc1cn(Cc2ccccc2)n[n+]1Cc1ccccc1
2,4 µM,CCCCCCCCCCCCc1cn(-c2ccc(C)cc2)n[n+]1Cc1ccc(C(C)(C)C)cc1
3,250 µM,CCCCCCCCc1cn(-c2ccc(C)cc2)n[n+]1Cc1ccccc1
4,250 µM,CCCCCCCCc1cn(Cc2ccccc2)n[n+]1Cc1ccccc1
5,250 µM,CCCCc1cn(Cc2ccccc2)n[n+]1Cc1ccc(C(C)(C)C)cc1
6,16 µM,CCCCCCCCc1cn(Cc2ccccc2)n[n+]1Cc1ccc(C(C)(C)C)cc1
7,16 µM,CCCCCCCCCCCCc1cn(Cc2ccccc2)n[n+]1Cc1ccc(C(C)(C)C)cc1
8,8 µM,CCCCCCCCCCCCc1cn(-c2ccc(C)cc2)n[n+]1Cc1ccccc1
9,8 µM,CCCCCCCCc1cn(-c2ccc(C)cc2)n[n+]1Cc1ccc(C(C)(C)C)cc1

# System: not listed separately
# Assay: Selectivity index, ratio of MIC for Enterobacter aerogenes ATCC 13048 to MIC for Bacillus subtilis ATCC 6051
# Type: functional
# Details: not given
row,SMILES,Selectivity Index
1,CCCCc1cn(-c2ccc(C)cc2)n[n+]1Cc1ccc(C(C)(C)C)cc1,> 50
2,CCCCCCCCc1cn(-c2ccc(C)cc2)n[n+]1Cc1ccccc1,> 50

# System: not listed separately
# Assay: Selectivity index, ratio of MIC for Candida albicans ATCC 90028 to MIC for Bacillus subtilis ATCC 6051
# Type: functional
# Details: not given
row,SMILES,Selectivity Index
1,CCCCc1cn(-c2ccc(C)cc2)n[n+]1Cc1ccc(C(C)(C)C)cc1,> 50
2,CCCCCCCCc1cn(-c2ccc(C)cc2)n[n+]1Cc1ccccc1,> 50

# System: not listed separately
# Assay: Selectivity index, ratio of MIC for Saccharomyces cerevisiae ATCC 9763 to MIC for Bacillus subtilis ATCC 6051
# Type: functional
# Details: not given
row,SMILES,Selectivity Index
1,CCCCc1cn(-c2ccc(C)cc2)n[n+]1Cc1ccc(C(C)(C)C)cc1,> 50
2,CCCCCCCCc1cn(-c2ccc(C)cc2)n[n+]1Cc1ccccc1,> 50

# System: not listed separately
# Assay: Selectivity index, ratio of MIC for Escherichia coli ATCC 25922 to MIC for Staphylococcus epidermidis ATCC 14990
# Type: functional
# Details: not given
row,SMILES,Selectivity Index
1,CCCCc1cn(-c2ccc(C)cc2)n[n+]1Cc1ccc(C(C)(C)C)cc1,> 50
2,CCCCCCCCc1cn(-c2ccc(C)cc2)n[n+]1Cc1ccccc1,> 50

# System: not listed separately
# Assay: Selectivity index, ratio of MIC for Enterobacter aerogenes ATCC 13048 to MIC for Staphylococcus epidermidis ATCC 14990
# Type: functional
# Details: not given
row,SMILES,Selectivity Index
1,CCCCc1cn(-c2ccc(C)cc2)n[n+]1Cc1ccc(C(C)(C)C)cc1,> 50
2,CCCCCCCCc1cn(-c2ccc(C)cc2)n[n+]1Cc1ccccc1,> 50

# System: not listed separately
# Assay: Selectivity index, ratio of MIC for Candida albicans ATCC 90028 to MIC for Staphylococcus epidermidis ATCC 14990
# Type: functional
# Details: not given
row,SMILES,Selectivity Index
1,CCCCc1cn(-c2ccc(C)cc2)n[n+]1Cc1ccc(C(C)(C)C)cc1,> 50
2,CCCCCCCCc1cn(-c2ccc(C)cc2)n[n+]1Cc1ccccc1,> 50

# System: not listed separately
# Assay: Selectivity index, ratio of MIC for Saccharomyces cerevisiae ATCC 9763 to MIC for Staphylococcus epidermidis ATCC 14990
# Type: functional
# Details: not given
row,SMILES,Selectivity Index
1,CCCCc1cn(-c2ccc(C)cc2)n[n+]1Cc1ccc(C(C)(C)C)cc1,> 50
2,CCCCCCCCc1cn(-c2ccc(C)cc2)n[n+]1Cc1ccccc1,> 50
